From publication PMC11413853, “Discovery of VU6007496: Challenges in the Development of an M1 Positive Allosteric Modulator Backup Candidate” (ACS Chemical Neuroscience, 2024)

Columns and labels:
[1] = Plasma protein binding, dog; format: in vitro ADME; conditions: pH 7.4, read-out: fu,plasma dog
Protocol: Plasma protein binding and Brain homogenate binding: Determination of fraction unbound (f u) in plasma was conducted in vitro via equilibrium dialysis using HTDialysis (HTD) membrane plates. The top half of the plate was filled with 100 uL of Dubelco’s Phosphate Buffered Saline, pH 7.4 (DPBS). Compounds were diluted into plasma from each species (5 µM final concentration), which was aliquoted in triplicate to the ‘bottom half’ of the prepared HTD plate wells. The HTD plate was sealed and incubated for 6 hours at 37 °C. Following incubation, each well (both top and bottom halves) were transferred (20 µL) to the corresponding wells of a 96-shallow-well (V-bottom) plate. […]
The unbound fraction (f u) was calculated following the equation below, and mean values for each species were calculated from 3 replicates.
A similar approach was used to determine the degree of brain homogenate binding, which employed the same methodology and procedure with the following modifications: 1) a final compound concentration of 1 μM was used, 2) naïve rat brains were homogenized in DPBS (1:3 composition of brain: DPBS, w/w) using a Mini-Bead Beater™ machine in order to obtain brain homogenate, which was then treated in the same manner as the plasma samples in the previously described plasma protein binding assay. Fraction unbound for both plasma and brain samples was determined using Equation 4. […]

[2] = Predicted hepatic clearance, dog; format: in vitro ADME
Protocol: The diluted fraction unbound (fu2) in brain was calculated in the same manner by using brain homogenate rather than plasma. Undiluted fraction unbound for the brain was calculated using […]
Equation 5 Determination of fraction unbound in brain. Fu2 represents the diluted fraction […]
Intrinsic clearance: Human or rat hepatic microsomes (0.5 mg/mL) and 1 µM test compound were incubated in 100 mM potassium phosphate pH 7.4 buffer with 3 mM MgCl2 at 37 °C with constant shaking. After a 5 min preincubation, the reaction was initiated by the addition of NADPH (1 mM). At selected time intervals (0, 3, 7, 15, 25, and 45 min), aliquots were taken and subsequently placed into a 96-well plate containing cold acetonitrile with internal standard (50 ng/mL carbamazepine). Plates were then centrifuged at 3000 rcf (4 °C) for 10 min, and the supernatant was transferred to a separate 96-well plate and diluted 1:1 with water for LC/MS/MS analysis. The in vitro half-life ( 1/2, min, Eq. 1), intrinsic clearance (CLint, mL/min/kg, Eq. 2), and subsequent predicted hepatic clearance (CLhep, mL/min/kg, Eq. 3) was determined employing the […]
Samples were analyzed on a Thermo Electron TSQ Quantum Ultra triple quad mass spectrometer (San Jose, CA) via electrospray ionization (ESI) with two Themo Electron Accella pumps (San Jose, CA), and a Leap Technologies CTC PAL autosampler (Carrboro, NC). […]

[3] = In vivo rat MET ID (plasma)
Protocol: The team was still puzzled by the severe cholinergic adverse events observed in rats at the 100 and 300 mg/kg arms of the dose escalation study, as this was not consistent with the past 20 years of M1 PAM research. Could the N-demethylated metabolite A (24) be responsible? Due to the disconnect between liver S9 and hepatocytes, we felt it was prudent to examine in vivo rat MET ID at doses of 100 and 300 mg/kg to ensure 24 is produced upon in vivo oral dosing after 5–30 min and 160–240 min, and to determine if any other putative metabolites are generated at detectable levels (Figure 10). Across both doses and time points, 73–81% of the parent 11 remained. Metabolite 24 was produced in vivo at 2.2 to 5.6% relative abundance and lower than from in vitro incubations, along with two oxidative metabolites, a dioxygenated species M461 (26) and a mono-oxygenated species M445 (27) on the tetrahydropyranyl moiety. […] A species such as 27 would resemble the hydroxy pyranyl congeners known to be potent ago-PAMs and prone to severe cholinergic side effects, and the potential for 24 to elicit similar cholinergic toxicity was unknown.

MET ID in human liver S9 = format: in vitro ADME; conditions: based on MS peak areas
Excerpt: Eight oxidative metabolites were identified, with the major metabolite in both rat and human being Metabolite A (VU6036463, 24), the result of oxidative N-demethylation of the southern pyrazole (Scheme 4). The majority of other oxidative metabolism occurred on the tetrahydropyran moiety and included ring opening, but there was no amide hydrolysis observed.[21]

Bradykinin B2 = assay: Eurofins radioligand binding; parameters: species or system Human; conditions: specific binding

Row | Compound | fraction unbound at 6 h, 5 µM [1] | Predicted CLhep, dog [2] | Relative Abundance (%) ([3]; 11 dosed 100mg, 5-30 min) | Relative Abundance (%) ([3]; 11 dosed 100mg, 60-240 min) | Relative Abundance (%) ([3]; 11 dosed 300mg, 5-30 min) | Relative Abundance (%) ([3]; 11 dosed 300mg, 160-240 min) | extent of metabolism, human liver S9 (MET ID in human liver S9) | % Inhibition at 10 µM (Bradykinin B2)
1 | Cn1ccc(-c2ccc(Cc3cc(C(=O)NC4CCOCC4)nc4ccsc34)cc2)n1 [compound 12] | 0.018 | 16 mL/min/kg |  |  |  |  |  | 
2 | Cn1ccc2nc(C(=O)NC3CCOCC3)cc(Cc3ccc(-c4cc[nH]n4)cc3)c21 [compound 24] |  |  | 2.2% | 5.6% | 1.7% | 3.2% |  | 
3 | Cn1ccc(-c2ccc(Cc3cc(C(=O)NC4CCOCC4)nc4ccn(C)c34)cc2)n1 [compound 11] | 0.06 | 14 mL/min/kg | 81.0% | 74.0% | 79.4% | 73.1% | 58.1% | -3%
